The test system of assay [1] is MUC5AC-containing stomach tissue. The assay is described as follows: Ex vivo fluorescent binding to stomach tissue. The conditions noted are these: MUC5AC-selective peptides to stomach. Also noted: species or system porcine. An excerpt:
(§1) After identifying the peptide hits for each mucin, we tested their binding in an ex vivo setting (Figure S1), evaluating their interaction with mucin-containing porcine tissue and semiquantitatively representing it through fluorescent imaging (Figure 3a). The cyclic peptides were synthesized and conjugated to a fluorophore, Alexa Fluor 647 (AF647), at the N-terminus to allow fluorescent imaging to be used to semiquantitatively measure the peptides’ ex vivo tissue binding, compared to free AF647 and AF647 conjugated to wheat germ agglutinin (WGA), a known lectin for glycoproteins.[40] […] Porcine GI tissue was used due to its similarity in mucin expression compared to human GI tissue and its capacity to source large surface areas of tissue for experiments.[41],[42] Representative IVIS images are shown in Figure 3b-e, where the first four columns represent the four identified peptides (M2.1–M2.4 in Figure 3b,c, M5.1–M5.4 in Figure 3d,e), the fifth column represents WGA-AF647, and the sixth column represents AF647. The “score” results for the peptide ligands are presented in Figure 3f,g for the mucins of interest, with Tables S2–S5 and Figure S3 detailing results for the other tissues (the equation for calculating the “score” is found in the Materials and Methodssection). […] We also examined selectivity by incubating peptides on nontarget tissues. Figure 3h,i depicts the “selectivity” results for the MUC2-selective and MUC5AC-selective peptides, respectively. Selectivity was calculated by determining the ratio of the “score” for a particular mucin to the sum of the “scores” for all mucins (see the Materials and Methods section for the equation used).
The top-performing hits from phage display were tested on ex vivo segments of porcine mucin-containing tissues (jejunal, stomach, and esophageal tissues) obtained from local abattoirs or laboratory-maintained pigs. Tissue was used either immediately after acquisition or after storage at −80 °C; tissue was used at most 1 week after acquisition and storage at −80 °C. After acquisition and equilibration to room temperature, the tissue was washed twice with 25 mL (each) of cold 1× PBS to remove undigested food and other debris. After washing and cleaning, the tissue was mounted between two magnetic plates with holes corresponding to a 48-well plate, as previously described,[72] such that the luminal side of the tissue was facing up (Figure S1). After the tissue was mounted, the amount of peptide/protein corresponding to 40 μg of AF647 was suspended in 200 μL of 1× PBS and added to the wells created by the magnetic plates. This was done 3× for each formulation to perform the experiment in triplicate. In addition, plain 1× PBS was added to one well to serve as the background measurement. […] After washing was complete, fluorescence imaging was performed using an IVIS Spectrum fluorescent imaging system (PerkinElmer), with an automatically calculated exposure time (usually ∼1 s), a 20 cm × 20 cm field of view, and an excitation/emission of 640/680 nm, respectively. The imaging results were analyzed using Living Image software to calculate the total fluorescence intensity for each well, and the results for each hit or control were averaged across different wells. […]
(§2) To better account for tissue-to-tissue variability, the results for each trial were reported as scores rather than using the raw fluorescence intensity. […]

In assay [2] the test system is MUC2-containing intestinal tissue (jejunal). The assay is described as follows: Ex vivo fluorescent binding to small intestine tissue. Also on record: species or system porcine. The conditions noted are these: MUC2-selective peptides to small intestine.
Description: as §1
The top-performing hits from phage display were tested on ex vivo segments of porcine mucin-containing tissues (jejunal, stomach, and esophageal tissues) obtained from local abattoirs or laboratory-maintained pigs. Tissue was used either immediately after acquisition or after storage at −80 °C; tissue was used at most 1 week after acquisition and storage at −80 °C. After acquisition and equilibration to room temperature, the tissue was washed twice with 25 mL (each) of cold 1× PBS to remove undigested food and other debris. After washing and cleaning, the tissue was mounted between two magnetic plates with holes corresponding to a 48-well plate, as previously described,[72] such that the luminal side of the tissue was facing up (Figure S1). After the tissue was mounted, the amount of peptide/protein corresponding to 40 μg of AF647 was suspended in 200 μL of 1× PBS and added to the wells created by the magnetic plates. This was done 3× for each formulation to perform the experiment in triplicate. In addition, plain 1× PBS was added to one well to serve as the background measurement. After the peptides were added, the plate setup was covered with aluminum foil and allowed to incubate for 1 h at room temperature with gentle agitation (50 rpm). After incubation, the nonbinding peptides were removed by pouring out the solutions onto a clean paper towel, and the setup was washed three times by adding 200 μL of 1× PBS to each well and gently agitating the setup for 30 s before removing the washing solution. After washing was complete, fluorescence imaging was performed using an IVIS Spectrum fluorescent imaging system (PerkinElmer), with an automatically calculated exposure time (usually ∼1 s), a 20 cm × 20 cm field of view, and an excitation/emission of 640/680 nm, respectively. The imaging results were analyzed using Living Image software to calculate the total fluorescence intensity for each well, and the results for each hit or control were averaged across different wells. The negative control used was unconjugated AF647, while the positive control was WGA-AF647, since WGA is a known lectin that binds glycoproteins.
as §2

The next assay relates to small intestine. As to the kind of experiment: In vivo gastrointestinal localization, small intestine. Also noted: species or system Sprague–Dawley rats. The conditions noted are these: AF647 conjugate, oral gavage, 1 mg/kg, fasted rats, n = 6, 6 h, segment fluorescence / sum of esophagus, stomach. The procedure:
To measure the gastrointestinal localization of these peptides in vivo, peptides M2.3 and M5.2 with conjugated AF647 dye (as a model drug) were administered via oral gavage to fasted Sprague–Dawley rats, along with unconjugated AF647 dye and WGA-AF647. After 6 h, localization was measured by using fluorescent imaging on the rats’ GI tracts. The major results of the total binding fluorescence and organ-specific binding fluorescence for M2.3, as well as the total binding fluorescence and organ-specific binding fluorescence for M5.2, along with results for the AF647 and WGA-AF647 in each case, are shown in Figure 4, with more detailed results found in Figure S9. All results have been adjusted by subtracting the fluorescence from tissue from untreated rats. […]
All animal studies were carried out under the supervision of MIT’s Division of Comparative Medicine and in compliance with NIH’s Principles of Laboratory Animal Care, following the guidelines set forth by MIT’s Committee on Animal Care. Sprague–Dawley rats (200–300 g, a mix of male and female) were obtained from Charles River Laboratories and allowed to acclimate to their new conditions for 1 week, following which their diet was adjusted to an alfalfa-free diet (AIN-93M, TestDiet) for at least 7 days prior to the study in order to reduce background fluorescence. […]

In assay [3] the target is T1, MUC5AC (Homo sapiens, UniProt P98088). The assay is described as follows: Phage display (CX7C library) against MUC5AC, Sanger sequencing. Type of assay: binding. As to conditions: MUC5AC phage screening, third round of panning, 16 sequenced candidates. The procedure: For each mucin of interest, 5 μg of mucin protein was diluted in 150 μL of Tris-buffered saline (TBS) and added to 2 wells of a microtiter plate. The plate was left overnight in a humidified, sealed container with agitation at 50 rpm. After the overnight mucin coating, the solution was poured out, and 300 μL of blocking buffer was added to the wells for 1 h. After the 1 h waiting period, the blocking buffer was poured out, and the wells were washed three times with 300 μL of Tris-buffered saline with TBST (TBS + 0.1% (v/v) Tween-20) to remove nonspecific binding on the mucin layer coating. Next, 5 μL of the C7C library diluted with 95 μL of TBST was added to each blocked well and placed on shaker for 45 min, before pouring out the nonbinding phage and washing the plate ten times with TBST. A 0.2 M glycine-HCl elution buffer (pH 2.2, 100 μL) was added to each well and placed on a shaker for 20 min to release the mucin-layer binding peptides on the plate as unamplified eluate, with the pH neutralized by 30 μL of neutralization buffer (1 M Tris-HCl, pH 9).
E. coli liquid cultures were prepared by adding E. coli cells to 20 mL of LB media and placing them in shaking conditions at 37 °C and 250 rpm for 2 h and 45 min. The unamplified eluate (1 μL of which was saved for titering) was added to the E. coli cultures under the same conditions for 4 h and 45 min for amplification. […]

In assay [4] the target is T1, MUC5AC. The assay is described as follows: Phage ELISA on MUC5AC. It counts as binding. The conditions noted are these: phage clones displaying the peptide, 10^7 PFU/μL, MUC5AC-coated plate, anti-M13/HRP, TMB, 450 nm, blank subtracted, three wells; vs random library and insertless phage. An excerpt: We next sought to validate the binding efficiency of these identified phage clones. We tested phage clones displaying peptides M2.1, M2.2, M2.3, and M2.4 for binding to MUC2, and phage clones displaying peptides M5.1, M5.2, M5.3, and M5.4 for binding to MUC5AC. We utilized a bacteriophage enzyme-linked immunosorbent assay to test the binding of the peptide hits to the specific target mucins, MUC2 and MUC5AC (Figure 2d). The spectrophotometer reported absorbance values at 450 nm. The intensity of the absorbance signal is proportional to the amount of peptide-mucin binding present in each sample. The negative controls (library samples and insertless samples) served as references for nonspecific binding.
First, mucin was coated onto the surface of a plastic plate overnight using the same process as that performed for the original phage display. The next morning, three wells of each phage clone were prepared, with each phage solution having a titer of 10^7 PFU/μL to ensure a fair comparison between the clones. […]
However, instead of eluting the bound phage, 100 μL of 1:2000 anti-M13/HRP mouse monoclonal antibody was added to each well, and the antibody was allowed to incubate with the wells for 30 min. […] The resulting solutions were analyzed by absorbance spectroscopy at a wavelength of 450 nm to determine the relative amount of phage present in each well.
A general note: ELISA stands for enzyme-linked immunosorbent assay.

Setting [5] is: scaled between free AF647 (0) and WGA-AF647 (1), mean across trials n = 3.

Bridge positions count the residues as written; N and C are the ends. Ends that are not written are not given here.

In the case of “Alexa Fluor 647-conjugated wheat germ agglutinin [WGA]”, the “Overall nanoparticle “score”” value in assay [1] (setting [5]) and in assay [2] (setting [5]) was 1 in each case. Also, the Selectivity is given as 0.333 in assay [1] (score for MUC5AC tissue / sum of scores for all mucins, n = 3) and 0.333 in assay [2] (score for MUC2 tissue / sum of scores for all mucins, n = 3). The “selectivity for the small intestine vs controls” value in the assay with small intestine is given as “did not demonstrate a significant improvement over the free dye”.
With “CSSASVEWC (disulfide 1-9 (inferred)) [Peptide M5.4, CX7C cyclic peptide hit for MUC5AC; AF647 conjugated at N-terminus in ex vivo tests]”, the “% Prevalence” value on MUC5AC [3] worked out at 6.25%. The “phage ELISA binding vs negative controls” value at MUC5AC [4] was “significantly greater binding to MUC5AC than the random library and insertless phage”.

These data come from PMC12020424, “Identification and Validation of Cyclic Peptides with Mucin-Selective, Location-Specific Binding in the Gastrointestinal Tract” (ACS Nano, 2025).
